Data from patent US20040028687A1, “Methods and compositions for the targeted delivery of therapeutic substances to specific cells and tissues” (priority 2002, published 2004).
Where two headings read alike, the source gives them in different places.

How the values were obtained:
[1] = test system: rNeu^+ tumor cells; format: in vivo, mice
Experimental: FIG. 6: Effect of virosome treatment on recently implanted tumors. 2×10^5 rNeu^+ tumor cells were injected s.c. and treatment was started 3-5 days later. I.v. injections of the different virosome formulations such as Doxo-Vir, Fab′-Doxo-Vir, Fab′-Vir and free Doxo (all at a concentration of 150 μg/ml doxorubicin) were performed at the indicated time points (arrows) for a period of three weeks. Tumor size was assessed twice a week during therapy and weekly in the follow-up period. Tumor formation (defined as volume >90 mm^3) in the different groups and the follow-up of >12 weeks is shown. Statistical analysis using Mann-Whitney rank test was performed. Control groups (◯), free Doxo (▾), Doxo-Vir (♦), Fab′-Vir (●), Fab′-Doxo-Vir (▪)
In another preferred embodiment of the invention, conjugated virosomes are used to arrest the metastatic spread of tumors. […] The effect of Fab′ conjugated virosomes on the growth of tumor metastases is assessed as follows. […] Tumor formation is assessed by palpation followed by measurement of tumor size as described in the previous example. […]
For the micrometastatic stage of tumor formation, 0.2×10^6 tumor cells are injected s.c. and treatment is started 3-5 days later. […] Tumor formation is assessed by palpation followed by measurement of tumor size as described in the previous example. […]

[2] = test system: rNeu^+ (NF 9006) tumors; format: in vivo, mice; settings: established rNeu+ tumors, i.v. every 3-4 days; comparison between treatments
[3] = cited from earlier work

Which “median time to tumor formation” value ([1]; 2×10^5 rNeu+ cells s.c., treatment from day 3-5, 9 injections over 3 weeks, tumor formation >90 mm^3) does the source give for `COc1cccc2c1C(=O)c1c(O)c3c(c(O)c1C2=O)C[C@@](O)(C(=O)CO)C[C@@H]3O[C@H]1C[C@H](N)[C@H](O)[C@H](C)O1` [free Doxo, doxorubicin] here?
The value was 20 days.

What about the tumor development ([1]; within 4 weeks after tumor cell inoculation, all mice of the group) of the same compound?
The tumor development was “developed tumors”.

What about the “tumor progression compared with another treatment group” value [2] of the same compound?
Its value is “no significant difference in tumor progression”.

And the tolerated dose ([3]; SCID mice)?
Its tolerated dose is 2 to 3 mg/kg.

And the tolerated dose ([3]; normal mice)?
Its tolerated dose is 6 mg/kg.
